Consider 19 molecules from patent publication US11566022B2, “3-(5-methoxy-1-oxoisoindolin-2-yl)piperidine-2,6-dione derivatives and uses thereof” (NOVARTIS AG, priority 2019, dated 2023).

Where two headings read alike, the source gives them in different places.

In this assay the target is HiBit-WIZ fusion protein (Homo sapiens, UniProt O95785+Q96SW2). The experiment in a line: Quantification of WIZ protein levels in HiBit tag fusion protein assay (WIZ HiBit assay in 293T cells). It is filed as cell-based. Details: Dmax: dose or concentration left out as unconfirmed. As to conditions: for remaining activity at up to 25 µM: DMSO-normalized, curve-fitted percentage of WIZ-HiBit remaining at 25 uM, read-out: WIZ Amax; for DC50: WIZ HiBit assay in 293T cells, 10-point, 5-fold dose response, highest concentration 25 μM, about 18 hours, read-out: WIZ AC50. In general terms: HiBiT is a short tag that completes a luciferase, so light tracks the accessible tagged protein.

Where [1] appears, read: HEK-293T, 100 minus Amax, 293T cells, read-out: % degradation of WIZ (100-Amax).

HiBit-WIZ fusion protein, sequence (O95785 whole entry, the tested form may be a part): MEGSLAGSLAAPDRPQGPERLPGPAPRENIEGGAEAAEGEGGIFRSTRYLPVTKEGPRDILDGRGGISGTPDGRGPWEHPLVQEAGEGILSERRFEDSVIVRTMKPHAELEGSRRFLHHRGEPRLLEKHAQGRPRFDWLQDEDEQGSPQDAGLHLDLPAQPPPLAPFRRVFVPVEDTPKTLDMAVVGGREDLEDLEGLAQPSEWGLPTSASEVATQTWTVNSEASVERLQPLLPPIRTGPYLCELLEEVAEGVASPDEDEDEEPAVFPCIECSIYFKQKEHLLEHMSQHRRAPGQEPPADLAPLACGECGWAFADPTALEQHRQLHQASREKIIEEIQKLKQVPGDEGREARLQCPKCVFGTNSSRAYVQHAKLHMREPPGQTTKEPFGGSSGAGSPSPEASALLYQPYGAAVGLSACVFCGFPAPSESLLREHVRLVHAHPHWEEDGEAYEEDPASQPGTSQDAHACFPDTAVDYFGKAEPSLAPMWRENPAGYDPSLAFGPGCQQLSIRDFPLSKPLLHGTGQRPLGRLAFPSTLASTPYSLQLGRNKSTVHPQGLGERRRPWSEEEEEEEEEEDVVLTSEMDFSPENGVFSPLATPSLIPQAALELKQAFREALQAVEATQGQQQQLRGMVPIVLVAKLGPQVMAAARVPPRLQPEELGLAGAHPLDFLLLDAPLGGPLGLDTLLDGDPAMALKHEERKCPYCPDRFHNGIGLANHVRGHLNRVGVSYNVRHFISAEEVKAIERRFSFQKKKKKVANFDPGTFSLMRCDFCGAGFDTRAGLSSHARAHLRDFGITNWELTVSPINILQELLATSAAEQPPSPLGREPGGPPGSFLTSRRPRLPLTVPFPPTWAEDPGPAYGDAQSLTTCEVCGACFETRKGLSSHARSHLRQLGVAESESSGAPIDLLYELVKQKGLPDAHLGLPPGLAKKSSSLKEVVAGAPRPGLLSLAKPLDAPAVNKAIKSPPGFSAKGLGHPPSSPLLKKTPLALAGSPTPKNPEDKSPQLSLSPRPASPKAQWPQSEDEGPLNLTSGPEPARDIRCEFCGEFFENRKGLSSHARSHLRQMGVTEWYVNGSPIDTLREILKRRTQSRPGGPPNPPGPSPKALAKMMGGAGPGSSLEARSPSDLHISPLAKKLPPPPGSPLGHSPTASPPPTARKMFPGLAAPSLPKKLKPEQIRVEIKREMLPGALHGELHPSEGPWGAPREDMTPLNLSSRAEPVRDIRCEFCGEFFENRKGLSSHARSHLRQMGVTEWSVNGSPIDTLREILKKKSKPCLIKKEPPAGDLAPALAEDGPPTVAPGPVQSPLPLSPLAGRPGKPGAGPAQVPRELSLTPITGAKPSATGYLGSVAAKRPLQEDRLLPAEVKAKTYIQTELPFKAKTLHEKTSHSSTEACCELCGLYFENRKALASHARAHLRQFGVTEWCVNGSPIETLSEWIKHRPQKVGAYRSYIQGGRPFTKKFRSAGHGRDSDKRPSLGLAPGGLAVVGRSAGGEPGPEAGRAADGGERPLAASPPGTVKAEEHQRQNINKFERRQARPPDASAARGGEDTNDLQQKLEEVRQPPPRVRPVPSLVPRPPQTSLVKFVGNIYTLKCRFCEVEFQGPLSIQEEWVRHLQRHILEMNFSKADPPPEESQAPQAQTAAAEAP
HiBit-WIZ fusion protein, sequence (Q96SW2 whole entry, the tested form may be a part): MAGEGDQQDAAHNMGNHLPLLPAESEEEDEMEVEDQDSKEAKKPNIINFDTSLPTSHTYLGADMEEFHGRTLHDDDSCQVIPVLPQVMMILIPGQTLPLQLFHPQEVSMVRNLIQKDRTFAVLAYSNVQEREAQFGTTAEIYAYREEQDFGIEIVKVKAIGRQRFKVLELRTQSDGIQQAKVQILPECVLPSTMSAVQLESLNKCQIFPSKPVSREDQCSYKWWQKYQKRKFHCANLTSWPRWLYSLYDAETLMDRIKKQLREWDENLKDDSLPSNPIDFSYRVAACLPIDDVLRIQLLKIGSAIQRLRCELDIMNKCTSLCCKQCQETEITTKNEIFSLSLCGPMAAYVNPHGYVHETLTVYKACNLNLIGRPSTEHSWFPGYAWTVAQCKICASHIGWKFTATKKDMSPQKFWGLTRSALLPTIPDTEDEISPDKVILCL
HiBit-WIZ fusion protein, sequence (Q16531 whole entry partner, the tested form may be a part): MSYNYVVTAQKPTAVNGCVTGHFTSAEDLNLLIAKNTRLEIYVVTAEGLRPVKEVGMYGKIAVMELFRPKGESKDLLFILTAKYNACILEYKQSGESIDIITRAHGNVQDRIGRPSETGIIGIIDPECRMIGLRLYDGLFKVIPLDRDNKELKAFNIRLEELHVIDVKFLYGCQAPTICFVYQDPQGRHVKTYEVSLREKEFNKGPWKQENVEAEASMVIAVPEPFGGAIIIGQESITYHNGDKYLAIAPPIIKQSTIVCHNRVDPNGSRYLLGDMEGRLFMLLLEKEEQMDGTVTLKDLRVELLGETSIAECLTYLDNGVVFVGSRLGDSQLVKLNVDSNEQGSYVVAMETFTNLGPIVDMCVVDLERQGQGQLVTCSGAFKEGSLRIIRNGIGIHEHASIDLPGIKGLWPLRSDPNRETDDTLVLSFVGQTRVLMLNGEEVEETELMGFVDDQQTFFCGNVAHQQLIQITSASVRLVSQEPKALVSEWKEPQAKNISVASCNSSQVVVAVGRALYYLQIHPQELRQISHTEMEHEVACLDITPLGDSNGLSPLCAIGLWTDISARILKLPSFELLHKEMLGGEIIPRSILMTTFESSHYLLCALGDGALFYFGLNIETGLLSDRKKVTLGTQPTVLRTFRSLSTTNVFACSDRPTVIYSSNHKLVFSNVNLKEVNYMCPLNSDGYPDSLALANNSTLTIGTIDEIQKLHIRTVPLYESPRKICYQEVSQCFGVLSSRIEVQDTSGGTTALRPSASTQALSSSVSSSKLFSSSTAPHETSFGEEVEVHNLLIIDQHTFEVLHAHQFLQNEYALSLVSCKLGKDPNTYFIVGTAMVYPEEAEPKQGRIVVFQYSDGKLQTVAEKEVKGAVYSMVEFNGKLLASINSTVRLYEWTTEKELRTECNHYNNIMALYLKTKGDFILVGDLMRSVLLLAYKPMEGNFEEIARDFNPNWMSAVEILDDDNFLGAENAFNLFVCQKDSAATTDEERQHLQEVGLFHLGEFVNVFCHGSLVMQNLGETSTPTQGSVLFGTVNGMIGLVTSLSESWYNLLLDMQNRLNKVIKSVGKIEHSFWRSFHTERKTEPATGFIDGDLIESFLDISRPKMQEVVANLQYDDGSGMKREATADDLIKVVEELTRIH

For `CO[C@H]1C[C@H](CN2CCCC[C@@H]2COc2ccc3c(c2)CN(C2CCC(=O)NC2=O)C3=O)C1` (stereo partly drawn) [Compound I-97, 3-(5-(((R)-1-(((1r,3R)-3-methoxycyclobutyl)methyl)piperidin-2-yl)methoxy)-1-oxoisoindolin-2-yl)piperidine-2,6-dione], the DC50 came out at 140 nM. Under setting [1], the Dmax came out at 91.8%. Also, the remaining activity at up to 25 µM (HEK-293T, 293T cells) came out at 8.17%.

On to `O=C1CCC(N2Cc3cc(OC[C@H]4CCCCN4CC45CC(F)(C4)C5)ccc3C2=O)C(=O)N1` (stereo partly drawn) [Compound I-100, 3-(5-(((R)-1-((3-fluorobicyclo[1.1.1]pentan-1-yl)methyl)piperidin-2-yl)methoxy)-1-oxoisoindolin-2-yl)piperidine-2,6-dione], for which the DC50 is 410 nM. For the same molecule, under setting [1], the Dmax came out at 82.2%. Further, the remaining activity at up to 25 µM (HEK-293T, 293T cells) was 17.8%.

Regarding `O=C1CCC(N2Cc3cc(OC[C@H]4CCCCN4Cc4ccccc4N4CCOCC4)ccc3C2=O)C(=O)N1` (stereo partly drawn) [Compound I-101], the DC50 came out at 72 nM. For the same molecule, the Dmax under setting [1] was 96%. For the same molecule, the remaining activity at up to 25 µM (HEK-293T, 293T cells) was 3.95%.

Turning to `O=C1CCC(N2Cc3cc(OC[C@H]4CCCCN4Cc4ccc(N5CCN(CC6CC6)CC5)cc4)ccc3C2=O)C(=O)N1` (stereo partly drawn) [Compound I-102, 3-(5-(((R)-1-(4-(4-(cyclopropylmethyl)piperazin-1-yl)benzyl)piperidin-2-yl)methoxy)-1-oxoisoindolin-2-yl)piperidine-2,6-dione], the DC50 turned out to be 240 nM. Besides, the Dmax under setting [1] amounted to 82.7%. Where the note is “HEK-293T, 293T cells”, the remaining activity at up to 25 µM turned out to be 17.3%.

`O=C1CCC(N2Cc3cc(OC[C@H]4CCCCN4CC4CC5(COC5)C4)ccc3C2=O)C(=O)N1` (stereo partly drawn) [Compound I-104, 3-(5-(((R)-1-((2-oxaspiro[3.3]heptan-6-yl)methyl)piperidin-2-yl)methoxy)-1-oxoisoindolin-2-yl)piperidine-2,6-dione]: the DC50 turned out to be 540 nM. Besides, the Dmax under setting [1] amounted to 87.1%. The remaining activity at up to 25 µM (HEK-293T, 293T cells) was determined as 12.9%.

As to `CC(C)(C)OC(=O)N1CCN(c2ccccc2CN2CCCC[C@@H]2COc2ccc3c(c2)CN(C2CCC(=O)NC2=O)C3=O)CC1` (stereo partly drawn) [Compound I-105, Tert-butyl 4-(2-(((2R)-2-(((2-(2,6-dioxopiperidin-3-yl)-1-oxoisoindolin-5-yl)oxy)methyl)piperidin-1-yl)methyl)phenyl)piperazine-1-carboxylate], the DC50 was 55 nM. The Dmax under setting [1] stood at 94.8%. In addition, the remaining activity at up to 25 µM (HEK-293T, 293T cells) turned out to be 5.23%.

As to `O=C1CCC(N2Cc3cc(OC[C@H]4CCCCN4Cc4ccccc4N4CCNCC4)ccc3C2=O)C(=O)N1` (stereo partly drawn) [Compound I-106, 3-(1-oxo-5-(((R)-1-(2-(piperazin-1-yl)benzyl)piperidin-2-yl)methoxy)isoindolin-2-yl)piperidine-2,6-dione], the DC50 came to 2560 nM. Also, the Dmax under setting [1] amounted to 80.1%. The remaining activity at up to 25 µM (HEK-293T, 293T cells) amounted to 19.9%.

Take `CC(C)CN1CCN(c2ccccc2CN2CCCC[C@@H]2COc2ccc3c(c2)CN(C2CCC(=O)NC2=O)C3=O)CC1` (stereo partly drawn) [Compound I-107, 3-(5-(((R)-1-(2-(4-isobutylpiperazin-1-yl)benzyl)piperidin-2-yl)methoxy)-1-oxoisoindolin-2-yl)piperidine-2,6-dione]: the DC50 is 16 nM. The Dmax under setting [1] was 99.8%. Moreover, the remaining activity at up to 25 µM (HEK-293T, 293T cells) is 0.21%.

As for `O=C1CCC(N2Cc3cc(OC[C@H]4CCCCN4Cc4ccccc4N4CCN(CC5CCOCC5)CC4)ccc3C2=O)C(=O)N1` (stereo partly drawn) [Compound I-108, 3-(1-oxo-5-(((R)-1-(2-(4-((tetrahydro-2H-pyran-4-yl)methyl)piperazin-1-yl)benzyl)piperidin-2-yl)methoxy)isoindolin-2-yl)piperidine-2,6-dione], the DC50 is 25 nM. In addition, the Dmax under setting [1] was determined as 98.1%. Besides, under “HEK-293T, 293T cells”, the remaining activity at up to 25 µM came to 1.93%.

With `O=C1CCC(N2Cc3cc(OC[C@H]4CCCCN4Cc4ccc(N5CCN(C6CCOCC6)CC5)cc4)ccc3C2=O)C(=O)N1` (stereo partly drawn) [Compound I-109, 3-(1-oxo-5-(((R)-1-(4-(4-(tetrahydro-2H-pyran-4-yl)piperazin-1-yl)benzyl)piperidin-2-yl)methoxy)isoindolin-2-yl)piperidine-2,6-dione], the DC50 turned out to be 1500 nM. Further, the Dmax under setting [1] was found to be 70.1%. Besides, the remaining activity at up to 25 µM (HEK-293T, 293T cells) is 29.9%.

Regarding `CC(C)(C)OC(=O)N1CCc2cccc(CN3CCCC[C@@H]3COc3ccc4c(c3)CN(C3CCC(=O)NC3=O)C4=O)c21` (stereo partly drawn) [Compound I-110, Tert-butyl 7-(((2R)-2-(((2-(2,6-dioxopiperidin-3-yl)-1-oxoisoindolin-5-yl)oxy)methyl)piperidin-1-yl)methyl)indoline-1-carboxylate], the DC50 turned out to be 8.6 nM. Moreover, the Dmax under setting [1] is 99.5%. For the same molecule, the remaining activity at up to 25 µM (HEK-293T, 293T cells) was 0.48%.

For the molecule `O=C1CCC(N2Cc3cc(OC[C@H]4CCCCN4Cc4cccc5c4NCC5)ccc3C2=O)C(=O)N1` (stereo partly drawn) [Compound I-111, 3-(5-(((R)-1-(indolin-7-ylmethyl)piperidin-2-yl)methoxy)-1-oxoisoindolin-2-yl)piperidine-2,6-dione], the DC50 is 11 nM. Moreover, the Dmax under setting [1] was 90.7%. Besides, the remaining activity at up to 25 µM (HEK-293T, 293T cells) turned out to be 9.3%.

As to `CCN1CCc2cccc(CN3CCCC[C@@H]3COc3ccc4c(c3)CN(C3CCC(=O)NC3=O)C4=O)c21` (stereo partly drawn) [Compound I-112, 3-(5-(((R)-1-((1-ethylindolin-7-yl)methyl)piperidin-2-yl)methoxy)-1-oxoisoindolin-2-yl)piperidine-2,6-dione], the DC50 was 59 nM. Moreover, the Dmax (HEK-293T, read-out: % degradation of WIZ (100-Amax), 100 minus Amax, 293T cells) worked out at 96.9%. For the setting “HEK-293T, read-out: WIZ Amax, DMSO-normalized, curve-fitted percentage of WIZ-HiBit remaining at 25 uM, 293T cells”, the remaining activity is 3.13%.

With `O=C1CCC(N2Cc3cc(OC[C@H]4CCCCN4Cc4ccc(F)cc4)ccc3C2=O)C(=O)N1` (stereo partly drawn) [Compound I-113], the DC50 stood at 3.8 nM. In addition, under setting [1], the Dmax was found to be 99.4%. Moreover, the remaining activity at up to 25 µM (HEK-293T, 293T cells) amounted to 0.64%.

Turning to `O=C1CCC(N2Cc3cc(OC[C@H]4CCCCN4Cc4ccc(F)cc4Cl)ccc3C2=O)C(=O)N1` (stereo partly drawn) [Compound I-114], the DC50 worked out at 18 nM. Besides, the Dmax under setting [1] turned out to be 94.5%. Under “HEK-293T, 293T cells”, the remaining activity at up to 25 µM stood at 5.54%.

Regarding `O=C1CCC(N2Cc3cc(OC[C@H]4CCCCN4Cc4ccc(F)cn4)ccc3C2=O)C(=O)N1` (stereo partly drawn) [Compound I-115], the DC50 is 170 nM. Further, under setting [1], the Dmax turned out to be 89.5%. For the same molecule, the remaining activity at up to 25 µM (HEK-293T, 293T cells) was determined as 10.5%.

As to `CO[C@H]1C[C@@H](CN2CCCC[C@@H]2COc2ccc3c(c2)CN(C2CCC(=O)NC2=O)C3=O)C1` (stereo partly drawn) [Compound I-118, 3-(5-(((R)-1-(((1s,3S)-3-methoxycyclobutyl)methyl)piperidin-2-yl)methoxy)-1-oxoisoindolin-2-yl)piperidine-2,6-dione], the DC50 stood at 380 nM. The Dmax under setting [1] is 85.4%. Where the note is “HEK-293T, 293T cells”, the remaining activity at up to 25 µM is 14.6%.

With `O=C1CCC(N2Cc3cc(OC[C@H]4CCCCN4Cc4ccccc4N4CCCCC4)ccc3C2=O)C(=O)N1` (stereo partly drawn) [Compound I-119], the DC50 worked out at 10 nM. Besides, the Dmax under setting [1] was 97.4%. Besides, the remaining activity at up to 25 µM (HEK-293T, 293T cells) came out at 2.56%.

`CC(C)(C)OC(=O)N1CCC(c2ccccc2CN2CCCC[C@@H]2COc2ccc3c(c2)CN(C2CCC(=O)NC2=O)C3=O)CC1` (stereo partly drawn) [Compound I-122, Tert-butyl 4-(2-(((2R)-2-(((2-(2,6-dioxopiperidin-3-yl)-1-oxoisoindolin-5-yl)oxy)methyl)piperidin-1-yl)methyl)phenyl)piperidine-1-carboxylate]: the DC50 turned out to be 51 nM. For the same molecule, under setting [1], the Dmax came out at 87.6%. Also, the remaining activity at up to 25 µM (HEK-293T, 293T cells) came out at 12.4%.
